According to patent publication US20260365627A1, “NOVEL ECTONUCLEOTIDE PYROPHOSPHATASE / PHOSPHODIESTERASE 1 (ENPP-1) INHIBITORS AND USES THEREOF” (SRAVATHI AI TECHNOLOGY PRIVATE LIMITED, priority 2022, published 2026):
Like-named read-outs stand apart in the source and are kept apart here.

Molecular target: T1, Human ENPP-1 (Homo sapiens, UniProt P22413)
T1 sequence (P22413 1-925): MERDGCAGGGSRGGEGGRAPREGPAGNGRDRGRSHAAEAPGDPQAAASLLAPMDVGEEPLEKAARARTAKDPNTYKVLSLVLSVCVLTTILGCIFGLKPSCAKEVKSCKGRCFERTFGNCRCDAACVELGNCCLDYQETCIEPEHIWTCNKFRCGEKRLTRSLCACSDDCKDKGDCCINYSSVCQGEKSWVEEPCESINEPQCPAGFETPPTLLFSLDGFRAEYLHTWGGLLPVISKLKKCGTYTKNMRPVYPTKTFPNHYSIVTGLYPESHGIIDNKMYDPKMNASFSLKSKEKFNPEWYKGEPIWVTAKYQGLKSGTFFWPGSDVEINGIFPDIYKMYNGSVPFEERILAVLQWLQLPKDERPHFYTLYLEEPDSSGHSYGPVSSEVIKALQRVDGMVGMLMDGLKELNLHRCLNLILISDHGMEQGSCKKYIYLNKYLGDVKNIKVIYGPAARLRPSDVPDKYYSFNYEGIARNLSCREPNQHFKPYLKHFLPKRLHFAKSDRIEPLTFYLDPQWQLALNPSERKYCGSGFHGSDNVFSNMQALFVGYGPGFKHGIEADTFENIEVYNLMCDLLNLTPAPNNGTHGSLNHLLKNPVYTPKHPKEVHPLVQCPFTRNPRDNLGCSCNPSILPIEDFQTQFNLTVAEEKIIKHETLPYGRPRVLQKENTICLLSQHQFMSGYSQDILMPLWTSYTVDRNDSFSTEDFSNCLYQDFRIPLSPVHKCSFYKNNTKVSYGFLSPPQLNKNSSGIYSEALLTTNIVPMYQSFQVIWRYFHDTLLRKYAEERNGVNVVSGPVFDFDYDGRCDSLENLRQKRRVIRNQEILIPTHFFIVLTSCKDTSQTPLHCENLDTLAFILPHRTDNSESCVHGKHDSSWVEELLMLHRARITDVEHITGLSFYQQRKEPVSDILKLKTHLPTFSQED
Assay: ENPP-1 Inhibition Assay (cGAMP substrate, AMP Glo luminescence)
Type: biochemical
Settings: Human ENPP-1 3 nM, 5 μM cGAMP, pH 7.4, 40 μM HSA
Experimental: Assay method: Human ENPP-1 at 3 nM prepared in pH 7.4 was incubated with 5 μM cGAMP substrate with the test samples prepared in buffer with pH 7.4 along with 40 μM HSA. The reaction was incubated at RT for 3 hrs. Post incubation, the reaction was stopped by heating the contents at 95 °C for 10 mins. 10 μl of the solution was added to 384-well plate to which 10 μl of AMP Glo reagent-1 was added and incubated for 60 mins at 25 °C. After the incubation, 20 μl of AMP detection solution was added to each well with the enzyme reaction and incubated for 60 mins at 25 °C. The luminescence signal (RLU) was recorded using SpectraMax I3X plate reader.
The luminescence signal is measured as a function of concentration of the inhibitor. If the inhibitor molecule is active, as the concentration of the inhibitor increases, the luminescence value (referred to as OD) decreases. % Inhibition is then calculated as
% Inhibition=((OD of Control−OD of sample)/OD of Control)×100
In this disclosure, the IC50 value of an inhibitor molecule is measured as the concentration of inhibitor which inhibits growth of 50% of the human ENPP-1. A graph of inhibitor concentration on X-axis vs. percentage inhibition on Y-axis is drawn and the […] is measured as the IC50 value.

[1] = RT 3 hrs, read-out: IC50 values of compounds of the invention, <100 nM
[2] = racemate and enantiomers separated by chiral HPLC, read-out: IC50 value range (enantiomers of SAPTI012S006)
[3] = RT 3 hrs, read-out: IC50 values of compounds of the invention, 1-10 uM
[4] = RT 3 hrs, read-out: IC50 values of compounds of the invention, >10 uM
[5] = RT 3 hrs, read-out: IC50 values of compounds of the invention, 0.1-1 uM

With `COc1cc2ncnc(N=S(C)(=O)c3ccc(B(O)O)cc3)c2cc1OC` (racemic) [SAPTI012S006] the IC50 [1] was < 100 nM and the IC50 [2] was < 100 nM.
In the case of `COc1cc2ncnc(N=S(C)(=O)c3ccc(B(O)O)cc3)c2cc1OC` (single isomer, unassigned) [SAPTI012S006-E1], the IC50 [2] is reported as > 100 nM.
With `COc1cc2ncnc(N=S(C)(=O)c3ccc(B(O)O)cc3)c2cc1OC` (single isomer, unassigned) [SAPTI012S006-E2] the IC50 [2] was < 100 nM.
For `COc1cc2ncnc(N=S(C)(=O)c3ccc(P(=O)(O)O)cc3)c2cc1OC` (stereo not drawn) [SAPTI012S001], the IC50 [3] was 1000 to 10000 nM.
`COc1cc2ncnc(N=S(C)(=O)c3cccc(P(=O)(O)O)c3)c2cc1OC` (stereo not drawn) [SAPTI012S002] gave an IC50 [3] of 1000 to 10000 nM.
`COc1cc2ncnc(N=S(C)(=O)c3ccc(NS(N)(=O)=O)cc3)c2cc1OC` (stereo not drawn) [SAPTI012S003, N-{4-[N-(6,7-dimethoxyquinazoline-4-)-S-methanesulfonimidoyl]phenyl}sulfuric diamide] was tested, and the IC50 [4] was > 10000 nM.
For `COc1cc2ncnc(N=S(C)(=O)c3cccc(B(O)O)c3)c2cc1OC` (stereo not drawn) [SAPTI012S005], the IC50 [1] was < 100 nM.
`COc1cc2ncnc(N=S(C)(=O)c3ccc(NC(N)=S)cc3)c2cc1OC` (stereo not drawn) [SAPTI012S007] gave an IC50 [5] of 100 to 1000 nM.
For `COc1cc2ncnc(N=S(C)(=O)c3ccc(S(C)(=N)=O)cc3)c2cc1OC` (stereo not drawn) [SAPTI012S008], the IC50 [1] was < 100 nM.
With `COc1cc2ncnc(N=S(C)(=O)c3ccc(NC(=O)Nc4ccccc4)cc3)c2cc1OC` (stereo not drawn) [SAPTI012S009] the IC50 [1] was < 100 nM.
`COc1cc2ncnc(N=S(C)(=O)c3cccc(NS(N)(=O)=O)c3)c2cc1OC` (stereo not drawn) [SAPTI012S010] was tested, and the IC50 [5] was 100 to 1000 nM.
For `COc1cc2ncnc(N=S(C)(=O)c3cccc(NC(N)=O)c3)c2cc1OC` (stereo not drawn) [SAPTI012S011], the IC50 [1] was < 100 nM.
With `COc1cc2ncnc(N=S(C)(=O)c3cccc(N(C)C(N)=O)c3)c2cc1OC` (stereo not drawn) [SAPTI012S012] the IC50 [5] was 100 to 1000 nM.
With `COc1cccc2c(N=S(C)(=O)c3cccc(N(C)C(N)=O)c3)ncnc12` (stereo not drawn) [SAPTI012S013] the IC50 [3] was 1000 to 10000 nM.
`COc1cc2ncnc(N=S(C)(=O)c3ccc(C(=O)O)cc3)c2cc1OC` (stereo not drawn) [SAPTI012S014] was tested, and the IC50 [5] was 100 to 1000 nM.
`COc1cc2ncnc(N=S(C)(=O)c3ccc(CNC(N)=O)cc3)c2cc1OC` (stereo not drawn) [SAPTI012S015] was tested, and the IC50 [1] was < 100 nM.
For `COc1cc2ncnc(N=S(C)(=O)c3ccc(C(N)=O)cc3)c2cc1OC` (stereo not drawn) [SAPTI012S016], the IC50 [1] was < 100 nM.
In the case of `COc1cccc2c(N=S(C)(=O)c3ccc(C(N)=O)cc3)ncnc12` (stereo not drawn) [SAPTI012S017], the IC50 [4] is reported as > 10000 nM.
`COc1cc2nccc(N=S(C)(=O)c3ccc(C(N)=O)cc3)c2cc1OC` (stereo not drawn) [SAPTI012S018] showed an IC50 [3] of 1000 to 10000 nM.
`Cn1ccc2c(N=S(C)(=O)c3ccc(C(N)=O)cc3)ncnc21` (stereo not drawn) [SAPTI012S019] gave an IC50 [3] of 1000 to 10000 nM.
`COc1cccc2c(N=S(C)(=O)c3ccc(C(N)=O)cc3)ccnc12` (stereo not drawn) [SAPTI012S020] gave an IC50 [3] of 1000 to 10000 nM.
With `COc1cc2ncnc(N=S(C)(=O)c3cccc(C(=O)O)c3)c2cc1OC` (stereo not drawn) [SAPTI012S021] the IC50 [1] was < 100 nM.
For `COc1cc2ncnc(N=S(C)(=O)c3cccc(C(N)=O)c3)c2cc1OC` (stereo not drawn) [SAPTI012S022], the IC50 [5] was 100 to 1000 nM.
With `COc1cc2ncnc(N=S(C)(=O)c3cccc(CN)c3)c2cc1OC` (stereo not drawn) [SAPTI012S023] the IC50 [4] was > 10000 nM.
With `COc1cc2ncnc(N=S(C)(=O)c3cccc(CNC(N)=O)c3)c2cc1OC` (stereo not drawn) [SAPTI012S024] the IC50 [1] was < 100 nM.
`COc1cc2ncnc(N=S(C)(=O)c3ccc(CCP(=O)(O)O)cc3)c2cc1OC` (stereo not drawn) [SAPTI012S025] showed an IC50 [5] of 100 to 1000 nM.
`COc1cc2ncnc(N=S3(=O)CCC(C)(C)c4cc(P(=O)(O)O)ccc43)c2cc1OC` (stereo not drawn) [SAPTI012S026] was tested, and the IC50 [4] was > 10000 nM.
`COc1cc2ncnc(N=S(=O)(CCCP(=O)(O)O)c3ccccc3)c2cc1OC` (stereo not drawn) [SAPTI012S027] was tested, and the IC50 [4] was > 10000 nM.
With `COc1cc2ncnc(N=S(C)(=O)c3cccc4c(P(=O)(O)O)cccc34)c2cc1OC` (stereo not drawn) [SAPTI012S028] the IC50 [1] was < 100 nM.
In the case of `COc1cc2ncnc(N=S(C)(=O)c3cccc4c(NC(N)=O)cccc34)c2cc1OC` (stereo not drawn) [SAPTI012S029], the IC50 [1] is reported as < 100 nM.
`COc1cc2ncnc(N=S(=O)(c3cccc(NC(N)=O)c3)C3CCCC3)c2cc1OC` (stereo not drawn) [SAPTI012S030] was tested, and the IC50 [1] was < 100 nM.
For `COc1cc2ncnc(N=S(=O)(c3ccc(P(=O)(O)O)cc3)C(C)C)c2cc1OC` (stereo not drawn) [SAPTI012S031], the IC50 [1] was < 100 nM.
`COc1cc2ncnc(N=S(=O)(c3cccc(NC(N)=O)c3)C3CC3)c2cc1OC` (stereo not drawn) [SAPTI012S032] gave an IC50 [5] of 100 to 1000 nM.
In the case of `COc1cc2ncnc(N=S(=O)(c3cccc(NC(N)=O)c3)C(C)C)c2cc1OC` (stereo not drawn) [SAPTI012S033], the IC50 [4] is reported as > 10000 nM.
Compound `COc1cc2ncnc(N=S(=O)(c3ccccc3)c3ccc(NC(N)=O)cc3)c2cc1OC` (stereo not drawn) [SAPTI012S034] has an IC50 [5] of 100 to 1000 nM.
For `COc1cccc2c(N=S(C)(=O)c3ccc(B(O)O)cc3)ncnc12` (stereo not drawn) [SAPTI012S035], the IC50 [5] was 100 to 1000 nM.
For `COc1cc2nccc(N=S(C)(=O)c3ccc(B(O)O)cc3)c2cc1OC` (stereo not drawn) [SAPTI012S036], the IC50 [1] was < 100 nM.
For `Cn1ccc2c(N=S(C)(=O)c3ccc(B(O)O)cc3)ncnc21` (stereo not drawn) [SAPTI012S037], the IC50 [4] was > 10000 nM.
`CS(=O)(=Nc1ncnc2ccc(F)cc12)c1ccc(B(O)O)cc1` (stereo not drawn) [SAPTI012S038] was tested, and the IC50 [4] was > 10000 nM.
Compound `COc1cccc2ncnc(N=S(C)(=O)c3ccc(B(O)O)cc3)c12` (stereo not drawn) [SAPTI012S039] has an IC50 [3] of 1000 to 10000 nM.
With `COc1nccc2c(N=S(C)(=O)c3ccc(B(O)O)cc3)ncnc12` (stereo not drawn) [SAPTI012S040] the IC50 [1] was < 100 nM.
With `CS(=O)(=Nc1ncnc2ccccc12)c1ccc(B(O)O)cc1` (stereo not drawn) [SAPTI012S041] the IC50 [4] was > 10000 nM.
In the case of `COc1cc2ncnc(N=S(C)(=O)c3ccc(CC(N)=O)cc3)c2cc1OC` (stereo not drawn) [SAPTI012S042], the IC50 [1] is reported as < 100 nM.
`COc1cc2ncnc(N=S(C)(=O)c3ccc(F)c(B(O)O)c3)c2cc1OC` (stereo not drawn) [SAPTI012S043] showed an IC50 [3] of 1000 to 10000 nM.
